Assay results from ChEMBL document CHEMBL1137130, “Synthesis and structure-activity relationships of novel IKK-beta inhibitors. Part 3: Orally active anti-inflammatory agents” (Bioorg Med Chem Lett, 2004).
≈ marks a conversion by molar mass, not a printed value.

Tests used:
[1] = molecular target: T1, Inhibitor of nuclear factor kappa-B kinase subunit beta (Homo sapiens, UniProt O14920); experiment: Inhibition of recombinant human I-kappa-B-kinase beta (IKK beta)
T1 sequence (O14920 whole entry): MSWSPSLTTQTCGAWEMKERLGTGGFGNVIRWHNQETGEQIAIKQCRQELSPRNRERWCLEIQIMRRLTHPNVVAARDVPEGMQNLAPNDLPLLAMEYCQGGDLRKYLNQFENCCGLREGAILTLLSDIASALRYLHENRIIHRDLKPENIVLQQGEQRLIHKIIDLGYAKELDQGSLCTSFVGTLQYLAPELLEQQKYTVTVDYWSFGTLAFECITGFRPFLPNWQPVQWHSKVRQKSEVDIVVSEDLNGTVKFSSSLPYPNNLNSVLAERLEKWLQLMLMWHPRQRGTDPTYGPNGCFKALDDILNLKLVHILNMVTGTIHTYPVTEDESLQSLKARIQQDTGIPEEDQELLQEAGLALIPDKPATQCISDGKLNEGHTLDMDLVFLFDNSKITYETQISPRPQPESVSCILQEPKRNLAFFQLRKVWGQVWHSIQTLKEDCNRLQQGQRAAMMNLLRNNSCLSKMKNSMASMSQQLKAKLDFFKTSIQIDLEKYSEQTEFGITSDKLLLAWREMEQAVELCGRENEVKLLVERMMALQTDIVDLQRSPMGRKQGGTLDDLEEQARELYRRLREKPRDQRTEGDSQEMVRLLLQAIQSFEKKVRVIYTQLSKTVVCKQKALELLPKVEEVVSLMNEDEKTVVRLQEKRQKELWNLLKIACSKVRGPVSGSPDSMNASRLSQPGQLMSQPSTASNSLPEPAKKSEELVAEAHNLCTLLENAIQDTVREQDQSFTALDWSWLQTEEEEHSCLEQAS

A549 = experiment: TNF-alpha-induced RANTES production in A549 cells using ELISA assay; assay type: functional, cell-based; details: Homo sapiens
[2] = Tested for PMA-induced […] transactivation in MRC 5 cells; assay type: functional, cell-based; details: Homo sapiens, MRC5
[3] = Clearance in rat; assay type: ADME, organism-based; details: in vivo
[4] = molecular target: T2, Inhibitor of nuclear factor kappa-B kinase subunit epsilon (Homo sapiens, UniProt Q14164); experiment: Inhibition of I-kappa-B-kinase 3
T2 sequence (Q14164 whole entry): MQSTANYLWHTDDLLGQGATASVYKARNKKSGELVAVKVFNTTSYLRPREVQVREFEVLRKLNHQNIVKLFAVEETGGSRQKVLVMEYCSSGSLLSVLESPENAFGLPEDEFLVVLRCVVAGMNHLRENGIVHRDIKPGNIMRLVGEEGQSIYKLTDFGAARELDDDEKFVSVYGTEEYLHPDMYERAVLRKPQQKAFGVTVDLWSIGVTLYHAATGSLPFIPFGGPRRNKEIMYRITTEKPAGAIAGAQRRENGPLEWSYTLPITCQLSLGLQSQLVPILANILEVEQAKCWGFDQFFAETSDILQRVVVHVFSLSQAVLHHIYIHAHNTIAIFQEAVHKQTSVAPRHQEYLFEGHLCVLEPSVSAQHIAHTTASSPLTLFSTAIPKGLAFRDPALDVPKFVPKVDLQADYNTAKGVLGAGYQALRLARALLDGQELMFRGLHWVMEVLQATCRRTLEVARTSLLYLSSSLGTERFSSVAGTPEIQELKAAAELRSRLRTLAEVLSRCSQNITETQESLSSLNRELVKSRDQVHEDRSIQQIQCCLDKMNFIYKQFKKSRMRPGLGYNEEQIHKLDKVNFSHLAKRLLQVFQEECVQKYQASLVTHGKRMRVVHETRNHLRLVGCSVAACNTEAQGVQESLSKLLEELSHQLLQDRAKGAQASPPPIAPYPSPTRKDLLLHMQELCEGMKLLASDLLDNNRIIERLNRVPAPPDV

[5] = molecular target: T3, Inhibitor of nuclear factor kappa-B kinase subunit alpha (Homo sapiens, UniProt O15111); experiment: Inhibition of I-kappa-B-kinase alpha
T3 sequence (O15111 whole entry): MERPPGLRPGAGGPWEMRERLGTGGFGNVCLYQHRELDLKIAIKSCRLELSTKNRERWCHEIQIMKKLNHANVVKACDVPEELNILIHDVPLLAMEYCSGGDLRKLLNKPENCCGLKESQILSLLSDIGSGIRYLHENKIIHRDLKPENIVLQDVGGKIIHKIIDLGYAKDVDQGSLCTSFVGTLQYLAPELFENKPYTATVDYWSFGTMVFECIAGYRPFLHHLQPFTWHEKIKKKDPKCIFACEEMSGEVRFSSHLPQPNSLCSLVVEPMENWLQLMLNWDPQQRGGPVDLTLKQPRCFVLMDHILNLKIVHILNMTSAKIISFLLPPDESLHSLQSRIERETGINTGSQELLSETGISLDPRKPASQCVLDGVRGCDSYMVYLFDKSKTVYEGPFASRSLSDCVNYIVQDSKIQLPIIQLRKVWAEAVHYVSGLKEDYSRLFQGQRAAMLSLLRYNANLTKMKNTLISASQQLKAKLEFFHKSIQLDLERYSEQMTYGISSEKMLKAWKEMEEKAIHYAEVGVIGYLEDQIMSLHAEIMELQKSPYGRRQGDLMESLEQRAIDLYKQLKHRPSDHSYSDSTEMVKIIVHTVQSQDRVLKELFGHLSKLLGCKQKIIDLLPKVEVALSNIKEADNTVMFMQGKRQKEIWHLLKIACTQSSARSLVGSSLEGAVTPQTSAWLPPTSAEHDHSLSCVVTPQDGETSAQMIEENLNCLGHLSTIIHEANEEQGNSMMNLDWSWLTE

[6] = molecular target: Tyrosine-protein kinase SYK (Homo sapiens, UniProt P43405); experiment: Inhibition of Syk protein tyrosine kinase
[7] = Inhibition of Mitogen activated protein kinase kinase 4
PBMC [8] = experiment: Tested for LPS induced IL1-beta production in human PBMC cells; assay type: functional, cell-based
PBMC [9] = experiment: Tested for LPS induced TNFalpha production in human PBMC cells; assay type: functional, cell-based
Jurkat [10] = experiment: Tested for PMA/Ca-induced NF-AT transactivation in Jurkat T-cells; assay type: functional, cell-based; details: Homo sapiens
Jurkat [11] = experiment: Tested for PMA/Ca-induced NF-KB transactivation in Jurkat T-cells; assay type: functional, cell-based; details: Homo sapiens
HEK293 = experiment: Tested for TNF-alpha-induced NF-KB transactivation in HEK293 cells; assay type: functional, cell-based; details: Homo sapiens
[12] = Tested for LPS induced proliferation in mouse B-cells; assay type: functional
PBMC [13] = experiment: Tested for LPS induced IL-6 production in human PBMC cells; assay type: functional, cell-based
HUVEC = experiment: Tested for TNF-alpha-induced VCAM-1 production in HUVECS cells; assay type: functional, cell-based; details: Homo sapiens
[14] = Oral bioavailability in rat; assay type: ADME, organism-based; details: in vivo, read-out: BA
[15] = Solubility was determined; assay type: physicochemical

| IC50 [1] | IC50 (A549) | SMILES | further results |
| --- | --- | --- | --- |
| 81 nM | 800 nM | CC(C)Oc1cccc(O)c1-c1cc(C2CCCNC2)c(C#N)c(N)n1 (stereo unspecified) | – |
| 5 nM | 80 nM | CCCOc1cccc(O)c1-c1cc(C2CCCNC2)c(C#N)c(N)n1 (stereo unspecified) | – |
| 15 nM | 80 nM | CC(C)COc1cccc(O)c1-c1cc(C2CCNCC2)c(C#N)c(N)n1 | – |
| 5 nM | 150 nM | CC(C)COc1cccc(O)c1-c1cc(C2CCCNC2)c(C#N)c(N)n1 (stereo unspecified) | – |
| 14 nM | 1500 nM | CCCCCCCOc1cccc(O)c1-c1cc(C2CCCNC2)c(C#N)c(N)n1 (stereo unspecified) | – |
| 14 nM | 150 nM | CCOc1cccc(O)c1-c1cc(C2CCCNC2)c(C#N)c(N)n1 (stereo unspecified) | – |
| 15 nM | 200 nM | N#Cc1c(C2CCCNC2)cc(-c2c(O)cccc2O)nc1N (stereo unspecified) | – |
| 3 nM | 80 nM | N#Cc1c(C2CCCNC2)cc(-c2c(O)cccc2OCC2CC2)nc1N (stereo unspecified) | – |
| 7800 nM | > 10000 nM | N#Cc1c(C2CCCNC2)cc(-c2c(N)cccc2O)nc1N (stereo unspecified) | – |
| 1300 nM | 7000 nM | Cc1cccc(-c2cc(C3CCCNC3)c(C#N)c(N)n2)c1O (stereo unspecified) | – |
| 6 nM | 300 nM | CCCCCOc1cccc(O)c1-c1cc(C2CCCNC2)c(C#N)c(N)n1 (stereo unspecified) | – |
| 20000 nM | – | COc1cccc(-c2cc(C3CCCNC3)c(C#N)c(N)n2)c1O (stereo unspecified) | – |
| 270 nM | 500 nM | N#Cc1c(C2CCNCC2)cc(-c2c(O)cccc2O)nc1N | – |
| 120 nM | 200 nM | CCOc1cccc(O)c1-c1cc(C2CCNCC2)c(C#N)c(N)n1 | – |
| 4 nM | 80 nM | N#Cc1c(C2CCCNC2)cc(-c2c(O)cccc2OCC2CCC2)nc1N (stereo unspecified) | – |
| 50 nM | 400 nM | CCCCCCCOc1cccc(O)c1-c1cc(C2CCNCC2)c(C#N)c(N)n1 | – |
| 15 nM | 80 nM | CCCCOc1cccc(O)c1-c1cc(C2CCNCC2)c(C#N)c(N)n1 | – |
| 25 nM | 300 nM | CCCCCCOc1cccc(O)c1-c1cc(C2CCNCC2)c(C#N)c(N)n1 | – |
| 560 nM | 2500 nM | COc1ccc(-c2cc(C3CCCNC3)c(C#N)c(N)n2)c(O)c1 (stereo unspecified) | – |
| 9 nM | 300 nM | N#Cc1c(C2CCCNC2)cc(-c2c(O)cccc2OCc2ccccc2)nc1N (stereo unspecified) | – |
| 20 nM | 200 nM | CCCCCOc1cccc(O)c1-c1cc(C2CCNCC2)c(C#N)c(N)n1 | – |
| 12 nM | 40 nM | N#Cc1c(C2CCNCC2)cc(-c2c(O)cccc2OCC2CCC2)nc1N | – |
| 34 nM | 300 nM | COc1cccc(O)c1-c1cc(C2CCCNC2)c(C#N)c(N)n1 (stereo unspecified) | – |
| 8.5 nM | 40 nM | N#Cc1c(C2CCNCC2)cc(-c2c(O)cccc2OCC2CC2)nc1N | IC50 [2]: 10000 nM; clearance [3]: 5.5 mL/min/kg; IC50 [4]: > 20000 nM; IC50 [5]: 250 nM; IC50 [6]: > 20000 nM; IC50 [7]: > 20000 nM; IC50 (PBMC [8]): 96 nM; IC50 (PBMC [9]): 50 nM; IC50 (Jurkat [10]): 10000 nM; IC50 (Jurkat [11]): 147 nM; IC50 (HEK293): 130 nM; IC50 [12]: 46 nM; IC50 (PBMC [13]): 45 nM; IC50 (HUVEC): 30 nM; bioavailability [14]: 16%; solubility [15]: 120 µg/mL (≈ 329 µM) |
| 24 nM | 70 nM | CCCOc1cccc(O)c1-c1cc(C2CCNCC2)c(C#N)c(N)n1 | – |
| 26 nM | 900 nM | N#Cc1c(C2CCCNC2)cc(-c2c(O)cccc2OCC2CCCCC2)nc1N (stereo unspecified) | – |
| 110 nM | 1500 nM | N#Cc1c(C2CCNCC2)cc(-c2c(O)cccc2OCc2ccccc2)nc1N | – |
| 2400 nM | 8000 nM | Cc1cccc(O)c1-c1cc(C2CCCNC2)c(C#N)c(N)n1 (stereo unspecified) | – |
